Reference: patent US9796687B2, “S-substituted quinazolines and their therapeutic applications for the treatment of diseases mediated by PDE7” (Consejo Superior De Investigaciones Cientificas (CSIC), priority 2016, dated 2017)
Where two headings read alike, the source gives them in different places.

How the values were obtained:
PDE4B2 = PDE4B2 (Homo sapiens (Human), UniProt Q07343); test: PDE4B2 inhibition; type: biochemical
PDE4D3 = PDE4D3 (Homo sapiens (Human), UniProt Q08499); test: PDE4D3 inhibition; type: biochemical
PDE4D3, sequence (Q08499 other isoform, or with tags, fused parts or gaps): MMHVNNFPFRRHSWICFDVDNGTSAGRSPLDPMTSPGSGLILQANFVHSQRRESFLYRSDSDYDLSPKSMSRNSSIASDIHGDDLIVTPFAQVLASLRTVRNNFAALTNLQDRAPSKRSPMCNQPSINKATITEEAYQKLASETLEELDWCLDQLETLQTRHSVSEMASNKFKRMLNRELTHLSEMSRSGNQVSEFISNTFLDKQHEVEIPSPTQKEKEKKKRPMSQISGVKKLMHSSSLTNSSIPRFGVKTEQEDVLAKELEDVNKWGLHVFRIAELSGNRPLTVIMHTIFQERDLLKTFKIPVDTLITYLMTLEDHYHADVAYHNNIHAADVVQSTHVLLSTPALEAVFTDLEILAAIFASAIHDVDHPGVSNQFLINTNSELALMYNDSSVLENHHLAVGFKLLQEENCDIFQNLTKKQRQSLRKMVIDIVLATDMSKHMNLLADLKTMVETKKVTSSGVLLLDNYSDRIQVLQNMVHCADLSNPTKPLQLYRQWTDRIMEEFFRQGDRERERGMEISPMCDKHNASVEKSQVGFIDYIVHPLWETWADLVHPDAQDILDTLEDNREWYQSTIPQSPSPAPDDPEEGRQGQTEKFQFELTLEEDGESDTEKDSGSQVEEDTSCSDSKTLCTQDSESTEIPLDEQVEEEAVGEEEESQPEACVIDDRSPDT

PDE7A1 = PDE7A1 (Homo sapiens (Human), UniProt Q13946); test: PDE7 inhibition, commercial phosphodiesterase activity kit ([3H]cAMP, SPA); type: biochemical
PDE7A1, sequence (Q13946 whole entry, species assumed): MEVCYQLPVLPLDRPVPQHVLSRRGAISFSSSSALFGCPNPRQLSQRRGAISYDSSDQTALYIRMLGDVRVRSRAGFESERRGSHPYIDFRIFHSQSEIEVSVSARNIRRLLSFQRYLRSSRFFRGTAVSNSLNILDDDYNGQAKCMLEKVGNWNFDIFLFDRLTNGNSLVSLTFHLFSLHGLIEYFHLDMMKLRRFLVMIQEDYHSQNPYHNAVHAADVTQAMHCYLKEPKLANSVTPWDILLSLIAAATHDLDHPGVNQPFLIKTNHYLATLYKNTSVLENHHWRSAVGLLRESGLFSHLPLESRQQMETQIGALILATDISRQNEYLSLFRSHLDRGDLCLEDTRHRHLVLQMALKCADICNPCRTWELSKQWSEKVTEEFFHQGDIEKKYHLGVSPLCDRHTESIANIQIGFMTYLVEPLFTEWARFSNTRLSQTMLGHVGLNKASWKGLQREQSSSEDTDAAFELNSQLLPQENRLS
Description: Measurement of PDE7 inhibition was carried out using a commercial phosphodiesterase activity measurement kit.
Some of the compounds of the present invention (including those synthesised in Example 1) were evaluated. For this purpose, said compounds were incubated (in a range of concentrations from 0.1 nM to 100 μM) in the presence of 0.02 U/well of PDE7A1 and 0.05 μCi of [^3H] cAMP, for 20 minutes at 30° C. in the assay buffer supplied with the kit (total volume per well=100 μL). Once this time had elapsed, 50 μL of a 20 mg/mL suspension of SPA glass silicate microspheres were added and kept in agitation at ambient temperature for 60 minutes. After allowing the plate to rest for 20 minutes, the radioactivity was tested in a scintillation detector. All the assays included two points in the absence of PDE7A1 (blank/negative control) and two points with PDE7A1 in the absence of inhibitors (positive control).
The data were adjusted with a software program using non-linear adjustment.

in vivo = settings: C57BL/6, mouse
Description: (§1) After the blood extraction, the mice of each group were sacrificed by asphyxia with CO2, in order to obtain the brain. The brains were washed in a cold solution, dried in filter paper, weighed and placed in polypropylene tubes. The brains were homogenised with a buffered solution of phosphate pH 7.4, so that the total volume of the homogenate was three times the weight of the brain. The samples were stored at −70° C. until their analysis.
(§2) The extraction procedure for the plasma/brain homogenate or plasma calibration standard/doped brain samples was the same: 100 μL of the internal standard (imipramine, 500 ng/mL) were added, prepared in acetonitrile, to 25 μL of sample (plasma/brain) or doped calibration standard, and agitated with a vortex agitator for 5 minutes. As a blank (negative control), only acetonitrile was added. The samples were centrifugated for 10 min at 15000 rpm (20600 g) at 4° C. 100 μL of each supernatant were transferred to 96-well plates for its analysis by liquid chromatography-tandem mass spectrometry (LC-MS/MS). The calibration standards were prepared by doping 10 μL of analyte (compound to be studied, 1 mg/mL) in 190 μL of virgin plasma/brain homogenate (and subsequent serial dilutions).
(§3) The pharmacokinetic study was performed based on the time-concentration data obtained for the plasma and brain, by means of non-compartmental analysis using version 5.2 of WinNonlin®. The areas under the concentration-time curve (AUClast and AUCinf) were calculated using the linear trapezoidal rule.
(§4) The only difference lay in the administration of the compounds, which was via the oral route, in a suspension consisting of Tween 80 0.1% v/v and sodium carboxymethyl cellulose (NaCMC) 0.5% w/v in water. The compounds were administered at a dosage of 10 mg/kg, by gastric intubation using a 22-gauge oral feeding needle.

hERG channel = hERG channel (Homo sapiens (Human), UniProt Q12809); test: Toxicity on the cardiac hERG channel, FluxOR thallium fluorescence assay in HEK293 cells; type: cell-based
hERG channel, sequence (Q12809 whole entry): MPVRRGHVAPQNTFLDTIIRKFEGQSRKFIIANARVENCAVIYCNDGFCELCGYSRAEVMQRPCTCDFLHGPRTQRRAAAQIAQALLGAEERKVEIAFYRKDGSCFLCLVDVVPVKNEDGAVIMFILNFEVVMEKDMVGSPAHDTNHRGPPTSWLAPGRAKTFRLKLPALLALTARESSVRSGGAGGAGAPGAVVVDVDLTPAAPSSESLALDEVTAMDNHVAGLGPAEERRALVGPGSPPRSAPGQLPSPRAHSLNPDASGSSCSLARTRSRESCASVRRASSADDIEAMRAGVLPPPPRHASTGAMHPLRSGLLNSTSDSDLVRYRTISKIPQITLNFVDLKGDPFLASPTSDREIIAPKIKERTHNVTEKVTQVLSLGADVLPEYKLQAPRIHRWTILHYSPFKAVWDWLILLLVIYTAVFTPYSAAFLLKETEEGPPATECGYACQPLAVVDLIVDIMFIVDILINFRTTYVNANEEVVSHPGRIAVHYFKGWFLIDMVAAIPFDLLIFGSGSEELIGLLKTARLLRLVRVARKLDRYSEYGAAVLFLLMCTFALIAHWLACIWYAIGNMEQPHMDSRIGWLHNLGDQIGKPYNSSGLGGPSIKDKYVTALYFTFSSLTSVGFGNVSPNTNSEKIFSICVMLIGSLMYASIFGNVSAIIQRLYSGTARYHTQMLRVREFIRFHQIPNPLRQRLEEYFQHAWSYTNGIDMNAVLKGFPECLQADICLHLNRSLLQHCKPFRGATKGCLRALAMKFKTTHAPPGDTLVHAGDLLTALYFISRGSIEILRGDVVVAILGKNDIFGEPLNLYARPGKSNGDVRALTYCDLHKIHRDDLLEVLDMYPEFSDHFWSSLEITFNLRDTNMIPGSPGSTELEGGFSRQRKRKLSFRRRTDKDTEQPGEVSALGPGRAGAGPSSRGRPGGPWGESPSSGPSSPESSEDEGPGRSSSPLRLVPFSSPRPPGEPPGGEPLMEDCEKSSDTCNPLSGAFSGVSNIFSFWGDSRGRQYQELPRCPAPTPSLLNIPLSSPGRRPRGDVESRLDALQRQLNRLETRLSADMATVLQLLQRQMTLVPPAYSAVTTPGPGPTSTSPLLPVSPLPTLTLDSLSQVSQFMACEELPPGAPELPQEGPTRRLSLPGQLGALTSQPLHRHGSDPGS
Description: The hERG potassium channel contributes in the final phase of the action potential, bringing the cell to its resting state. If a drug suppresses the activity of the channel, it can produce a prolongation of the […], known as “long QT syndrome”, resulting in a fatal ventricular arrhythmia.
To characterise the behaviour of the hERG potassium channel in the presence of the compounds of the present invention, use was made of an assay based on a fluorescent probe (FluxOR®, Life Technologies) with high affinity for thallium, an indicator of the activity of the potassium ion channel. When the potassium channels open in response to a stimulus, the influx of thallium from the external environment is detected by the probe. The fluorescent signal is therefore proportional to the number of open potassium channels in the cell. The FluxOR® is added in ester form without fluorescent emission capacity, thus preventing the emission of fluorescence outside the cell. When it enters the cell, the cytosol esterases activate the FluxOR®, so that it is capable of binding the thallium that passes into the cytoplasm through the hERG channel and of emitting fluorescence.
Black plates containing 96 wells treated with poly-D-lysine were seeded with HEK293 cells (deposit number ATCC CRL-1573) modified to stably express the hERG channel. […] After one hour of incubation of the fluorochrome with the cells at ambient temperature, the plates were washed with 50 μL of assay buffer. Subsequently, 20 μL of the compounds to be studied were added at a dilution of 1:200 (2 μL of compound/400 μL of assay buffer), in triplicate, on 12-point curves (1:2 dilutions of the compound in DMSO). […]. After 30 minutes of incubation, the plates were read in a FLIPR TETRA®, which added 5 μL of stimulus buffer (Tl2SO4+K2SO4). […]

[1] = Pharmacokinetic studies in mice: exposure in plasma and brain; settings: for levels in plasma and brain 2 hours after administration (elimination): intraperitoneal or oral administration; for Kp / Tmax / Cmax: C57BL/6, mouse; for Kp: brain; for Tmax: plasma and brain; for Cmax: plasma
Description: as §1, §2, §3, §4

in vitro = settings: PAMPA, pH 7.4
Description: (§5) PDVF membrane filters were used for filtering the samples (diameter 30 mm, pore size 0.45 μm).
(§6) Ten reference compounds were selected whose passage across the blood-brain barrier is known and in the public domain, in order to validate the experiment. […] The solutions were filtered. Afterwards, 180 μL of a solution of PBS/ethanol (70/30) were added to each well of the acceptor plate. The donor plate was impregnated with 4 μL of a solution of porcine brain lipid dissolved in dodecane (20 mg mL-1).
(§7) After 5 minutes, 180 μL of solution of each compound were added to this plate.
(§8) The donor plate was then placed on the acceptor plate, forming a kind of sandwich, and left to incubate for 2 h and 30 min at 25° C. The compounds passed by passive transport from the donor plate, through the porcine brain lipid, to the acceptor plate. After 2 h and 30 min, the donor plate was carefully removed.
(§9) The concentration and absorbance, both of the commercial compounds and of the compounds of the present invention that were evaluated in the acceptor and donor plates, were determined using a UV absorbance reader. Each sample was analysed at different wavelengths (between 3 and 5 absorbance minima and maxima were chosen for each compound at wavelength valves of between 220 nm and 450 nm), in 3 wells and in a minimum of 2 independent experiments. […] The measurements were carried out on the acceptor plate.

[2] = Parallel artificial membrane permeability assay (PAMPA) for CNS / blood-brain barrier permeability; settings: pH 7.4
Description: as §5, §6, §7, §8, §9

[3] = mice, intraperitoneal administration, 10 mg/kg
[4] = mice, oral administration, 10 mg/kg
[5] = mice, oral administration, 10 mg/kg, Tmax 0.5 h

PDE4B2, sequence (Q07343 other isoform, or with tags, fused parts or gaps, species assumed): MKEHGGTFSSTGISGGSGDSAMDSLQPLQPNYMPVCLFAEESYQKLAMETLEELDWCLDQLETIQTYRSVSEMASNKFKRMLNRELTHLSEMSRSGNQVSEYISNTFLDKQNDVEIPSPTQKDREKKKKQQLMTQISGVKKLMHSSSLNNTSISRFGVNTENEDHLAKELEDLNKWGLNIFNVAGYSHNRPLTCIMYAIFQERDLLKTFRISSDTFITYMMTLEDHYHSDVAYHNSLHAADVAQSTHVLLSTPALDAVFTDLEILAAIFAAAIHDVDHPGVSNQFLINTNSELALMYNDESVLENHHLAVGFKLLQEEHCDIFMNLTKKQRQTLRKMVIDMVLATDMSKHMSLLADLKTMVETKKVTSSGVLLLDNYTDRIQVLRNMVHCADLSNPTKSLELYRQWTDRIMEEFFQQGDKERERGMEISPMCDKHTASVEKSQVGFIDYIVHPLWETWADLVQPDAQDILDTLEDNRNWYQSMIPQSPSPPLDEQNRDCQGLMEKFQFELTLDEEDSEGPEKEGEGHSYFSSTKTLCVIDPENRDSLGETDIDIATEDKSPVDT

With `O=c1c2ccccc2nc(SCC2CCCCC2)n1-c1ccccc1` [Compound 1, 2-Cyclohexylmethylthio-3-phenyl-4-oxo-3,4-dihydroquinazoline] as the compound, how does the inhibition at 10 µM (PDE4B2) read?
Its inhibition at 10 µM is 18%.

What about the inhibition at 10 µM (PDE4D3) of the same compound?
Its inhibition at 10 µM is 49%.

What about the IC50 (PDE7A1; read-out: PDE7A IC50) of the same compound?
Its IC50 is 200 nM.

With `O=c1c2ccccc2nc(SCC2CCCCC2)n1-c1ccccc1Br` [Compound 2, 3-(2-Bromophenyl)-2-cyclohexylmethylthio-4-oxo-3,4-dihydroquinazoline] as the compound, how does the IC50 (PDE7A1; read-out: PDE7A IC50) read?
The IC50 was 2110 nM.

Which inhibition at 10 µM (PDE4B2) does the source give for `CC(C)(C)CSc1nc2ccccc2c(=O)n1-c1ccccc1` [Compound 5, 3-Phenyl-2-neopentylthio-4-oxo-3,4-dihydroquinazoline] here?
The inhibition at 10 µM was 29%.

What about the inhibition at 10 µM (PDE4D3) of the same compound?
The inhibition at 10 µM was 37%.

What about the IC50 (PDE7A1; Table 3, read-out: PDE inhibitory activity PDE7A CI50) of the same compound?
Its IC50 is 100 nM.

And the IC50 (PDE7A1; read-out: PDE7A IC50)?
The IC50 was 100 nM.

What about the Kp (in vivo) of the same compound?
Its Kp is greater than 1.

What about the Cmax (in vivo; ip, 10 mg/kg) of the same compound?
Its Cmax is 2310 nM.

And the Kp (in vivo; ip, 10 mg/kg)?
The Kp was 2.45.

And the Tmax (in vivo; ip, 10 mg/kg)?
The Tmax was 15 min.

What about the Cmax (in vivo; po, 10 mg/kg) of the same compound?
The Cmax was 1380 nM.

And the Kp (in vivo; po, 10 mg/kg)?
Its Kp is 1.19.

And the Tmax (in vivo; po, 10 mg/kg)?
Its Tmax is 30 min.

What about the IC50 (hERG channel) of the same compound?
The IC50 was greater than 30000 nM.

What about the cardiotoxic potential (hERG channel; deduced from hERG data) of the same compound?
Its cardiotoxic potential is “did not have any cardiotoxic potential”.

What about the “Cmax/PDE7 IC50 ratio, brain” value [1, 3] of the same compound?
The value was 56.5.

And the “Cmax/PDE7 IC50 ratio, plasma” value [1, 3]?
Its value is 23.1.

And the “Brain Cmax” value ([1]; mice, intraperitoneal administration, 10 mg/kg, Tmax 0.25 h)?
Its value is 5650 nM.

And the “levels in plasma and brain 2 hours after administration (elimination)” value ([1]; mice, 10 mg/kg)?
Its value is “still considerable levels”.

And the “Cmax/PDE7 IC50 ratio, brain” value [1, 4]?
The value was 16.4.

And the “Cmax/PDE7 IC50 ratio, plasma” value [1, 4]?
The value was 13.8.

What about the “Brain Cmax” value [1, 5] of the same compound?
Its value is 1640 nM.

For `Cc1cccc2c(=O)n(-c3c(F)cccc3F)c(SCC(C)(C)C)nc12` [Compound 6, 3-(2,6-Difluorophenyl)-8-methyl-2-neopentylthio-4-oxo-3,4-dihydroquinazoline], which IC50 (PDE7A1; read-out: PDE7A IC50) is on record?
Its IC50 is 8670 nM.

With `CC(C)(C)CSc1nc2c(Cl)cccc2c(=O)n1-c1ccccc1` [Compound 11, 8-Chloro-3-phenyl-2-neopentylthio-4-oxo-3,4-dihydroquinazoline] as the compound, how does the IC50 (PDE7A1; read-out: PDE7A IC50) read?
The IC50 was 1200 nM.

Which Papp at 2.5 h (in vitro) does the source give for `Cc1ccccc1-n1c(SCC(C)(C)C)nc2ccccc2c1=O` [Compound 13, 3-(2-Methylphenyl)-2-neopentylthio-4-oxo-3,4-dihydroquinazoline] here?
Its Papp at 2.5 h is 3.9 ± 0.7 ×10⁻⁶ cm/s.

And the IC50 (PDE7A1; read-out: PDE7A IC50)?
The IC50 was 1850 nM.

Which Papp at 2.5 h (in vitro) does the source give for `O=c1c2ccccc2nc(SCC2CC2)n1-c1ccccc1Br` [Compound 14, 3-(2-Bromophenyl)-2-cyclopropylmethylthio-4-oxo-3,4-dihydroquinazoline] here?
Its Papp at 2.5 h is 1.9 ± 0.3 ×10⁻⁶ cm/s.

What about the IC50 (PDE7A1; read-out: PDE7A IC50) of the same compound?
Its IC50 is 9440 nM.

With `Cc1cccc2c(=O)n(-c3c(F)cccc3F)c(SCC3CC3)nc12` [Compound 15, 2-Cyclopropylmethylthio-3-(2,6-difluorophenyl)-8-methyl-4-oxo-3,4-dihydroquinazoline] as the compound, how does the Papp at 2.5 h (in vitro) read?
Its Papp at 2.5 h is 1.3 ± 0.9 ×10⁻⁶ cm/s.

What about the IC50 (PDE7A1; read-out: PDE7A IC50) of the same compound?
The IC50 was 4560 nM.

For `CCSc1nc2ccccc2c(=O)n1-c1ccccc1` [Compound 16, 2-Ethylthio-3-phenyl-4-oxo-3,4-dihydroquinazoline], which Papp at 2.5 h (in vitro) is on record?
The Papp at 2.5 h was 7.9 ± 1.2 ×10⁻⁶ cm/s.

And the IC50 (PDE7A1; read-out: PDE7A IC50)?
The IC50 was 6900 nM.

With `CCSc1nc2ccccc2c(=O)n1-c1c(F)cccc1F` [Compound 17, 2-Ethylthio-3-(2,6-difluorophenyl)-4-oxo-3,4-dihydroquinazoline] as the compound, how does the Papp at 2.5 h (in vitro) read?
The Papp at 2.5 h was 4.8 ± 0.6 ×10⁻⁶ cm/s.

And the IC50 (PDE7A1; read-out: PDE7A IC50)?
The IC50 was 6990 nM.

Which IC50 (PDE7A1; read-out: PDE7A IC50) does the source give for `CCSc1nc2c(Cl)cccc2c(=O)n1-c1c(F)cccc1F` [Compound 18, 8-Chloro-2-ethylthio-3-(2,6-difluorophenyl)-4-oxo-3,4-dihydroquinazoline] here?
The IC50 was 2440 nM.

Which results are given for `O=c1c2ccccc2nc(SCc2ccccc2)n1-c1ccccc1` [Compound 21, 2-Benzylthio-3-phenyl-4-oxo-3,4-dihydroquinazoline]?
inhibition at 10 µM (PDE4B2): 28%; inhibition at 10 µM (PDE4D3): 38%; IC50 (PDE7A1; read-out: PDE7A IC50): 600 nM

Which Papp at 2.5 h (in vitro) does the source give for `O=c1c2ccccc2nc(SCc2ccccn2)n1-c1ccccc1` [Compound 23, 3-Phenyl-2-(2-pyridylmethylthio)-4-oxo-3,4-dihydroquinazoline] here?
Its Papp at 2.5 h is 12.4 ± 2.2 ×10⁻⁶ cm/s.

What about the IC50 (PDE7A1; read-out: PDE7A IC50) of the same compound?
The IC50 was 800 nM.

For `O=c1c2ccccc2nc(SCc2cccnc2)n1-c1ccccc1` [Compound 24, 3-Phenyl-2-(3-pyridylmethylthio)-4-oxo-3,4-dihydroquinazoline], which Papp at 2.5 h (in vitro) is on record?
The Papp at 2.5 h was 18.6 ± 1.7 ×10⁻⁶ cm/s.

What about the IC50 (PDE7A1; read-out: PDE7A IC50) of the same compound?
Its IC50 is 700 nM.

For `O=c1[nH]c(SCc2cccnc2)nc2c(Cl)cccc12` [Compound 25, 8-Chloro-2-(3-pyridylmethylthio)-4-oxo-3,4-dihydroquinazoline], which Papp at 2.5 h (in vitro) is on record?
The Papp at 2.5 h was 12.1 ± 3.9 ×10⁻⁶ cm/s.

And the IC50 (PDE7A1; read-out: PDE7A IC50)?
Its IC50 is 540 nM.

With `Cc1ccccc1-n1c(SCc2cccnc2)nc2ccccc2c1=O` [Compound 26, 3-(2-Methylphenyl)-2-(3-pyridylmethylthio)-4-oxo-3,4-dihydroquinazoline] as the compound, how does the Papp at 2.5 h (in vitro) read?
Its Papp at 2.5 h is 20.1 ± 0.1 ×10⁻⁶ cm/s.

What about the IC50 (PDE7A1; read-out: PDE7A IC50) of the same compound?
Its IC50 is 120 nM.

What does the source list for `O=c1c2ccccc2nc(SCc2ccncc2)n1-c1ccccc1` [Compound 27, 3-Phenyl-2-(4-pyridylmethylthio)-4-oxo-3,4-dihydroquinazoline]?
Papp at 2.5 h (in vitro): 15.9 ± 1.3 ×10⁻⁶ cm/s; IC50 (PDE7A1; read-out: PDE7A IC50): 2600 nM

For `O=c1c2ccccc2nc(SCc2ccc3ccccc3c2)n1-c1ccccc1` [Compound 28, 3-Phenyl-2-(2-naphthylmethylthio)-4-oxo-3,4-dihydroquinazoline], which IC50 (PDE7A1; read-out: PDE7A IC50) is on record?
Its IC50 is 90 nM.

Which Papp at 2.5 h [2] does the source give for `CN1C(C(=O)Nc2ccccn2)=C(O)c2ccccc2S1(=O)=O` [Piroxicam, piroxicam] here?
The Papp at 2.5 h was 0.2 ± 0.1 ×10⁻⁶ cm/s.

Which results are given for `S=c1[nH]c2ccccc2c(=S)n1-c1ccccc1` [TC3.6, 3-Phenyl-2,4-dithioxo-1,2,3,4-tetrahydroquinazoline]?
IC50 (hERG channel; stimulated the opening of the potassium channel, HEK293 hERG, FluxOR): 5190 nM; Kp ([1]; ip, 10 mg/kg): 0.51; Kp ([1]; other: intraperitoneal and oral, 10 mg/kg): < 1; Kp ([1]; po, 10 mg/kg): 0.43; Tmax ([1]; ip, 10 mg/kg): 15 min; Tmax ([1]; po, 10 mg/kg): 30 min; Cmax ([1]; ip, 10 mg/kg): 6790 nM; Cmax ([1]; po, 10 mg/kg): 860 nM; Cmax/PDE7 IC50 ratio, brain [1, 3]: 3.33; Cmax/PDE7 IC50 ratio, plasma [1, 3]: 6.53; levels in plasma and brain 2 hours after administration (elimination) ([1]; mice, 10 mg/kg): almost eliminated; Cmax/PDE7 IC50 ratio, brain [1, 4]: 0.36; Cmax/PDE7 IC50 ratio, plasma [1, 4]: 0.83; Brain Cmax [1, 5]: 370 nM; Brain Cmax ([1]; mouse, in vivo): 3460 nM
